From ChEMBL document CHEMBL1201862, “PubChem BioAssay data set” (2004)
The source made the active and inactive calls.

What was measured:
Fatty acid synthase [1] = target: T1, Fatty acid synthase (Homo sapiens, UniProt P49327); assay: inhibition of human FAS-TE enzyme activity – biochemical, kinetic fluorescence intensity, dose response (AID 624326); type: functional;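 further: rate of fluorescence rise from hydrolysis of a fluorogenic O-methyl fluorescein ester substrate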
[2] = general mammalian cell viability loss – inhibitor set, cherry-pick, set 2, cytotoxicity control for miR-122 modulator project, dose response (AID 720697); type: functional, cell-based
[3] = Luminescence Cell-Based Dose Retest to Confirm Inhibitors of Cancer Stem Cells. [Related pubchem assays (depositor defined):AID2717, AID2721]; type: functional; conditions: Homo sapiens
Fatty acid synthase [4] = target: T1, Fatty acid synthase; assay: inhibition of human FAS-TE enzyme activity – biochemical, endpoint fluorescence intensity, uHTS hits, dose response (AID 624327); type: functional;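 further: fluorescence from hydrolysis of an O-methyl fluorescein acyl ester substrate by the enzyme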
[5] = Trypanosoma cruzi growth suppression in host cells – NIH3T3 host cells, beta-gal luminescence, confirmation (AID 2044); type: functional, cell-based;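 further: intracellular parasites grown in NIH/3T3 mouse fibroblasts as host cells; luminescent beta-galactosidase reporter signal from transgenic T. cruzi replicating inside host cells; inhibitors lower the luminescence signal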
[6] = general mammalian cell viability loss – activator set, cherry-pick, cytotoxicity control for miR-122 modulator project, dose response (AID 720690); type: functional, cell-based;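 further: HEK293T human cells scored for general mammalian cytotoxicity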
[7] = NIH3T3 cell viability loss – ATP luminescence, mouse fibroblasts, counter-screen, dose response (AID 2010); type: functional, cell-based;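 further: cells exposed to compound for about 90 hours before reading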
[8] = target: T2, Oxysterols receptor LXR-beta (Homo sapiens, UniProt P55055); type: functional, cell-based;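 further: agonist activity at LXR measured by a cell-based luminescence readout across a dose range, run as a counterscreen for daf-12 agonists; HEK293 cells with Gal4-LXR fusion and GAL4-driven luciferase reporter; potency for activation of Gal4-LXR reporter so compounds are agonists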
T2 sequence (P55055 whole entry): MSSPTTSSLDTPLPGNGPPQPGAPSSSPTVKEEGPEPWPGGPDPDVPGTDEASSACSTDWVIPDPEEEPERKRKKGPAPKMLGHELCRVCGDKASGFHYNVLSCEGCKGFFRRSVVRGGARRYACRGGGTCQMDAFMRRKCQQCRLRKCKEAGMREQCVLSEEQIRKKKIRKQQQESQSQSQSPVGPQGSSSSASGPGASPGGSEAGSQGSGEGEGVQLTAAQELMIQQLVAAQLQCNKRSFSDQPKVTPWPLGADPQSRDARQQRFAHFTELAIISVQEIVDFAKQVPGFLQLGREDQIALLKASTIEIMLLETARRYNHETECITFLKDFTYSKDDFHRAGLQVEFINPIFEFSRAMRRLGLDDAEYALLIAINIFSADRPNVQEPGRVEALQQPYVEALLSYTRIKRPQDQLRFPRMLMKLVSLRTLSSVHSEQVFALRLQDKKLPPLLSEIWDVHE

[9] = target: T3, Nuclear receptor subfamily 0 group B member 1 (Homo sapiens, UniProt P51843); type: functional, cell-based;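 further: HEK293T cells transfected with SF-1 and DAX-1 plus StAR promoter luciferase reporter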
T3 sequence (P51843 whole entry): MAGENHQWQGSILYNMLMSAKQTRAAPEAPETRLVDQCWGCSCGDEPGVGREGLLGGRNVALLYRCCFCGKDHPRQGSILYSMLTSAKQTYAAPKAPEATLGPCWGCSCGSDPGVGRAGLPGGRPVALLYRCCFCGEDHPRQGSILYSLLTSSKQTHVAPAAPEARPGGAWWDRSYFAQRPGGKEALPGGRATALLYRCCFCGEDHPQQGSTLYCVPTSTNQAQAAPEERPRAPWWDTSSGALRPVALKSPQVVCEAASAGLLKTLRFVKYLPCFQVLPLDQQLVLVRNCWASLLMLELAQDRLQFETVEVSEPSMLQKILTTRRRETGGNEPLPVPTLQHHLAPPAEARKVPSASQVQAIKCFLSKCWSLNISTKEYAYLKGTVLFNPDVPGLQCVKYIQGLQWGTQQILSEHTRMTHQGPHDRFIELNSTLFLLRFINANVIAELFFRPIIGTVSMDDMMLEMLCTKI

cells [10] = type: functional, cell-based
[11] = activation of miR-122 Renilla sensor silencing – cell-based, Huh7 psiCHECK-miR122, Renilla luciferase, cherry-picked, dose response (AID 651956); type: functional;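 further: huh7 hepatoma cells stably carrying a psiCHECK-2 miR-122 sensor plasmid; renilla luciferase signal reporting endogenous miR-122 activity after 48 h compound exposure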
[12] = target: T4, Low molecular weight phosphotyrosine protein phosphatase (Homo sapiens, UniProt P24666); type: functional; conditions: read-out: IC50_Mean;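 further: Dose-response confirmation assay measuring inhibition of LMPTP enzyme activity by fluorescence intensity read-out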
T4 sequence (P24666 whole entry): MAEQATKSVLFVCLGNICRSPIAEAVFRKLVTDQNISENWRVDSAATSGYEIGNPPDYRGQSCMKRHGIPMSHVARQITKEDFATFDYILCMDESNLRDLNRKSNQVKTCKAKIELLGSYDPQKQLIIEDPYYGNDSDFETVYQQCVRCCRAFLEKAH

Caspase-6 = target: T5, Caspase-6 (Homo sapiens, UniProt P55212); assay: inhibition of CASP6 peptide cleavage – biochemical, VEID-R110 fluorescence, cherry-pick, dose response (AID 720632)
T5 sequence (P55212 whole entry): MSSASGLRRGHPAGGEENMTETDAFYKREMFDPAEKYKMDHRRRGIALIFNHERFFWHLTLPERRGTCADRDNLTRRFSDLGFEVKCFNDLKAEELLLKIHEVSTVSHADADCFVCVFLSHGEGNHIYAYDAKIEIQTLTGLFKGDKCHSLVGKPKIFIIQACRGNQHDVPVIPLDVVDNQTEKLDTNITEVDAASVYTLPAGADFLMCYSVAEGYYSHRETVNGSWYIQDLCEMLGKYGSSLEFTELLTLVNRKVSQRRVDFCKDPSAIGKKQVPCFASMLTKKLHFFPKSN

Caspase-7 = Caspase-7 (Homo sapiens, UniProt P55210); assay: caspase-7 enzyme inhibition, selectivity check – biochemical, DEVD-R110 fluorescence, cherry-pick, selectivity assay for caspase-6 inhibitor project, dose response (AID 743295); type: functional
Caspase-7, sequence (P55210 24-198 limits assumed): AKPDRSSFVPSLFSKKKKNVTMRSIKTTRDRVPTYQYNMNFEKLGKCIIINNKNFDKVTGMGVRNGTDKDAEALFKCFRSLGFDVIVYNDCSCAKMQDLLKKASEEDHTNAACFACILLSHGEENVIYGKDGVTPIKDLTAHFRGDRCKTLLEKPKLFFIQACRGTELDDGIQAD
Caspase-7, sequence (P55210 207-303 limits assumed): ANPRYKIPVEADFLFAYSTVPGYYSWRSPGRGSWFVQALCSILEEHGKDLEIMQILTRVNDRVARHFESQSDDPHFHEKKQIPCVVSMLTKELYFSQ

Vero = assay: viability loss in Vero cells – cell-based, plate reader, cherry-pick samples, cytotoxicity control, dose response (AID 687020); type: functional; conditions: Chlorocebus sabaeus
[13] = toxicity toward HepG2 liver cells – cell-based, plate reader, cherry-pick, antagonist series, cytotoxicity control, dose response (AID 743416); type: functional
[14] = blockade of melanocortin 4 receptor signaling – cell-based, plate reader, cherry pick, counter-screen for LGR2 antagonist project, dose response (AID 743444); type: functional;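 further: transfected HEK 293 cells stimulated with alpha-MSH peptide; potency of inhibitors of the alpha-MSH evoked signal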
[15] = viability loss in HEK293 cells – cell-based, plate reader, cherry-picked samples, cytotoxicity control, dose response (AID 743446); type: functional
[16] = blockers of bursicon-stimulated LGR2 cAMP reporter – cell-based, HEK293, CRE-luciferase reporter, cherry pick, set 2, dose response (AID 743343); type: functional;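 further: transfected cells were stimulated with diluted bursicon conditioned medium after compound addition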
[17] = A549 cell cytotoxicity, dose response, cytotoxicity control, plate reader, cherry-pick, antagonist series (AID 743412); type: functional, cell-based
[18] = target: Disintegrin and metalloproteinase domain-containing protein 17 (Homo sapiens, UniProt P78536); assay: inhibition of ADAM17 substrate cleavage – biochemical, quenched FRET substrate, counter-screen for ADAM10 exosite inhibitor project, dose response (AID 743253)
Disintegrin and metalloproteinase domain-containing protein 17, sequence (P78536 whole entry, the tested form may be a part): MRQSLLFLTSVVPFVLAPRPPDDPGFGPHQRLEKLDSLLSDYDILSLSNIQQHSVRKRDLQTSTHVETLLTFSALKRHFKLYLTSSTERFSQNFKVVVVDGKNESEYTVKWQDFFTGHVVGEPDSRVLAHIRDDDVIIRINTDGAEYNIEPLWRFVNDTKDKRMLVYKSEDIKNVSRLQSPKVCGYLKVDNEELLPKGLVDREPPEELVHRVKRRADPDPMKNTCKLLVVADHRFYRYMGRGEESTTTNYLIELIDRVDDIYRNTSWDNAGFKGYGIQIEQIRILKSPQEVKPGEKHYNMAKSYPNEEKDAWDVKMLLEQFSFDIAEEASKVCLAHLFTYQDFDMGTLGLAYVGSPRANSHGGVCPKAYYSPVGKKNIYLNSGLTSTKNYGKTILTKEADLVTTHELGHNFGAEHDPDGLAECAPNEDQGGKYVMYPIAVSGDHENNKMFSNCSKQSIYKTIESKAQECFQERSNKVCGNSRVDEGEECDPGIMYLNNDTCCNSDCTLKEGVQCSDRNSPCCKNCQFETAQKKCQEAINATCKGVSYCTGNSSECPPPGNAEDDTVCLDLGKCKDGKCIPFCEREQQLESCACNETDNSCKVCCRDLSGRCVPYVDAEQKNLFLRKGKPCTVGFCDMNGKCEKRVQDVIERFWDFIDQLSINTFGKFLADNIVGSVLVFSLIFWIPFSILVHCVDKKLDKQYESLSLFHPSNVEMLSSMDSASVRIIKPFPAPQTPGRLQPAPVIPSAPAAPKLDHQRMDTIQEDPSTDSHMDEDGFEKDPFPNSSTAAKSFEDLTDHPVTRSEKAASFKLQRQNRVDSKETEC

[19] = potency of ADAM10 substrate cleavage blockers – biochemical, QFRET, dose response (AID 743254);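 further: ADAM10 enzyme with the DM2 quenched FRET peptide as substrate; EDANS fluorescence gain as the protease cuts the substrate; inhibitor potency against ADAM10 proteolytic activity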
cells [20] = type: functional, cell-based; remark: listed apart in the source
INS1 = assay: INS-1E survival protection against cytokine death – cell-based, luminescence, retest, dose response (AID 449756); type: functional; conditions: Rattus norvegicus;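 further: cell death triggered by IL-1 beta plus TNF-alpha plus IFN-gamma mixture; protective hits raise ATP signal compared with cytokine alone wells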
cells [21] = type: functional, cell-based; remark: listed apart in the source
[22] = bead-based luminescence quenchers, dual-tagged ARNT – biochemical, AlphaScreen, cherry-pick, artefact control for ARNT-TACC3 interaction inhibitor project, dose response (AID 651705); type: functional;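 further: AlphaScreen bead proximity signal that flags compounds interfering with the detection technology; potency reflects signal decrease which marks the compound as an assay artifact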
Nonstructural protein 1 = Nonstructural protein 1 (Influenza A virus, UniProt Q194T2); type: functional, Influenza A virus (A/California/07/2009(H1N1))
Nonstructural protein 1, sequence (Q194T2 whole entry): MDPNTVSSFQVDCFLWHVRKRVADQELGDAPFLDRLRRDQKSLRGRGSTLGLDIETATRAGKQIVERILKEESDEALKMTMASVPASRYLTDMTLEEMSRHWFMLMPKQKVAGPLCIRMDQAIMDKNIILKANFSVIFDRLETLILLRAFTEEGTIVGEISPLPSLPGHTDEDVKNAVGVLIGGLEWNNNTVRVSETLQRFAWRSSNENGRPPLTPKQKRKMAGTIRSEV

T1 sequence (P49327 whole entry): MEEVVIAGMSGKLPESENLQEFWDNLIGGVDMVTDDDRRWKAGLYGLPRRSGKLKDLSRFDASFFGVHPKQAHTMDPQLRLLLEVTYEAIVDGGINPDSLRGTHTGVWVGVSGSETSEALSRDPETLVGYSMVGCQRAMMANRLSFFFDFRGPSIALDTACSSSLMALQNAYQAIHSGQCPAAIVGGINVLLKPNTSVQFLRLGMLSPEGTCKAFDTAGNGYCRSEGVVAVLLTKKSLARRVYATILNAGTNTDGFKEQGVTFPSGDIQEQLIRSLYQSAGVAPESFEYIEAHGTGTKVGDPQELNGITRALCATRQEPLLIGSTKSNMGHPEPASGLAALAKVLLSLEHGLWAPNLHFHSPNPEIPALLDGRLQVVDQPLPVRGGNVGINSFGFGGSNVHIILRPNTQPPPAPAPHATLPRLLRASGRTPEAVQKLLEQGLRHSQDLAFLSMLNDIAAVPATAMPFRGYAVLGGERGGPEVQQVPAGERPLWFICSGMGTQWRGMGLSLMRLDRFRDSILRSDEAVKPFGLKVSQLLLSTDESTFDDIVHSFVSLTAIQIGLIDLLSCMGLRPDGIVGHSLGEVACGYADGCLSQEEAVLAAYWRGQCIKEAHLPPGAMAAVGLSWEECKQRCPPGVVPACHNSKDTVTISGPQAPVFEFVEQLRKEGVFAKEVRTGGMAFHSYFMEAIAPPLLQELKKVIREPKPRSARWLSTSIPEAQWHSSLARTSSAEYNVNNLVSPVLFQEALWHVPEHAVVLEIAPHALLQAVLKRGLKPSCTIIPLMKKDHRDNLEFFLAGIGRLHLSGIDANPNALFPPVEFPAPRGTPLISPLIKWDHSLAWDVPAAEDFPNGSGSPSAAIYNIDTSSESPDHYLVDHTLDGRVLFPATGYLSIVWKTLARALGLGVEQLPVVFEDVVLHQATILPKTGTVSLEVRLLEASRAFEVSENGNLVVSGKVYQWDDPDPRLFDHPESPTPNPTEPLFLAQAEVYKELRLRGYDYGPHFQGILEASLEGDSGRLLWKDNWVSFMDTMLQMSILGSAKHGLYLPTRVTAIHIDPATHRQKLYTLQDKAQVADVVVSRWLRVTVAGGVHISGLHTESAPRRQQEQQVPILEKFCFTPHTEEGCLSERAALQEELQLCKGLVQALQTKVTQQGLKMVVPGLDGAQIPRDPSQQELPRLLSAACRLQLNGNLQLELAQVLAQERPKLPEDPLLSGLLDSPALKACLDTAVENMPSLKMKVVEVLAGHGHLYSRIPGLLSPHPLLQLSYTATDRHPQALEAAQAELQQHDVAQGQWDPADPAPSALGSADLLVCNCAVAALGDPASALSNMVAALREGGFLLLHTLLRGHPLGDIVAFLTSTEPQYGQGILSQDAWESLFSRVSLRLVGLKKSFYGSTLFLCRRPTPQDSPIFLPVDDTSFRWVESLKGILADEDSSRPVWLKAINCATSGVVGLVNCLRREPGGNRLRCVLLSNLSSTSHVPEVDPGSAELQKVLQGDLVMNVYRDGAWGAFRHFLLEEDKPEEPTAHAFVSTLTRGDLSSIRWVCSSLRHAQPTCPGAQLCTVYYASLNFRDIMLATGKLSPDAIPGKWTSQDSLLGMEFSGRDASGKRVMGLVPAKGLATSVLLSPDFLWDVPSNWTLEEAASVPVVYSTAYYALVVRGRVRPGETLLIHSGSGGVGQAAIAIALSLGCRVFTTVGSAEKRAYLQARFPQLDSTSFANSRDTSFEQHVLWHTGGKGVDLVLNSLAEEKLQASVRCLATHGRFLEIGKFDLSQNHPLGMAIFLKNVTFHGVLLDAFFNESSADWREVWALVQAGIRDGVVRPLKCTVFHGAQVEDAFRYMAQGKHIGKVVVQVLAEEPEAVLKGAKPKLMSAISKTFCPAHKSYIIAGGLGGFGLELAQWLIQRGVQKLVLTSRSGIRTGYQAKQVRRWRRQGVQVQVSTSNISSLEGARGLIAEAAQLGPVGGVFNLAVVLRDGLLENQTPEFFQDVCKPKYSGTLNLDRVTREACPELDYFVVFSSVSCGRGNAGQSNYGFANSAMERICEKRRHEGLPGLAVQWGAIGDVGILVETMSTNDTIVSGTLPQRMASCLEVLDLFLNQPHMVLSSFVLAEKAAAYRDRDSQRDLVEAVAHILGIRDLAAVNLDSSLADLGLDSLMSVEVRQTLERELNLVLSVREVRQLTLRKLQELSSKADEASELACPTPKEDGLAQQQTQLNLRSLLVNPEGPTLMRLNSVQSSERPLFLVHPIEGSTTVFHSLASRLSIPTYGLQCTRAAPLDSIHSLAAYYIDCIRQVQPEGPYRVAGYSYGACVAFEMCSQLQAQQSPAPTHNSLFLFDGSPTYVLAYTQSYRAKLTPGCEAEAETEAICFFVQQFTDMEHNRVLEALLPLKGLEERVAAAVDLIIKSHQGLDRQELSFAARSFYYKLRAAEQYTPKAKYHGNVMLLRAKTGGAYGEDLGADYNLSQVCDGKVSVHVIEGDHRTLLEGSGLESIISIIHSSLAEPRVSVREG

CN(C)CCNc1nc2sc3c(c2c(=O)n1CCc1ccccc1)CCCCC3
IC50 (Fatty acid synthase [1]): 19.3 µM (active)
AC50 [2]: 7.83 µM (active)
AC50 [3]: 6.6 µM (active)
IC50 (Fatty acid synthase [4]): 18.8 µM (active)
EC50 [5]: 0.125 µM (active)
AC50 [6]: 14.7 µM (active)
EC50 [7]: 30.9 µM (active)

c1ccc(CSc2ccc(-c3cccs3)nn2)cc1
EC50 [8]: > 67.5 µM (inactive)

COc1cc2c(c(OC)c1OC)-c1ccc(OC)c(=O)cc1C(NC(=O)c1ccccc1)CC2 (stereo not given)
IC50 [9]: > 67.5 µM (inactive)
IC50 (cells [10]): > 67.5 µM (inactive)

CN1C(=O)c2cc(NC(=O)Nc3cccc(Cl)c3)ccc2OC[C@@H]2O[C@H](CC(=O)NCCc3ccncc3)CC[C@H]21
AC50 [11]: 16.1 µM (active)

CCOC(=O)c1sc2nc(OCCN3CCOCC3)cc(C)c2c1N
IC50 [12]: 61.1 µM (inactive)
AC50 (Caspase-6): 2.18 µM (active)
AC50 (Caspase-7): 45.2 µM (active)

CC(C)Oc1ccccc1OC1(C)CCN(Cc2ccc(OC(F)(F)F)cc2)C1 (stereo not given)
AC50 (Vero): 27.4 µM (active)

C[C@H]1CN([C@@H](C)CO)S(=O)(=O)c2ccc(C#CC(C)(C)O)cc2O[C@@H]1CN(C)Cc1ccc(-c2ccccc2)cc1
AC50 [13]: 0.759 µM (active)
AC50 [11]: 7.8 µM (active)
AC50 [2]: 10.7 µM (active)
AC50 [14]: 20.2 µM (active)
AC50 [15]: 1.95 µM (active)
AC50 [16]: 29.6 µM (active)
AC50 [6]: 12.3 µM (active)
AC50 [17]: 0.778 µM (active)

CCCCCCCCNS(=O)(=O)/C=C/c1ccccc1CNC(=O)OC(C)(C)C
IC50 [18]: > 69.6 µM (inactive)
IC50 [19]: > 7.73 µM (active)

Cc1ncc(CO)c(/C=N/NC(=O)c2cc3c(s2)CCCC3)c1O
EC50 (cells [20]): 11.4 µM (active)
AC50 (INS1): 1.89 µM (active)
EC50 (cells [21]): > 350 µM (not active)
AC50 [22]: 119 µM (active)
IC50 (Nonstructural protein 1): 11.9 µM (active)
